Data reported in ChEMBL document CHEMBL3769374, “Novel N-thiazolyl piperazine-1-carboxamide CCR2 antagonists investigation of an unexpected reaction with glutathione” (Medchemcomm, 2015).

Columns and labels:
[1] = Glutathione reactivity at 50 uM measured over 18 hrs by LC-UV method
[2] = molecular target: C-C chemokine receptor type 2 (Homo sapiens, UniProt P41597); test: Antagonist activity at human C-C chemokine receptor type 2 expressed in THP-1 cells assessed as inhibition of CCL2-induced calcium flux preincubated for 10 mins followed by CCL2 addition by Fluo-4 dye based FLIPR assay; format: functional, cell-based
Sequence of C-C chemokine receptor type 2 (Homo sapiens, UniProt P41597) (P41597 whole entry): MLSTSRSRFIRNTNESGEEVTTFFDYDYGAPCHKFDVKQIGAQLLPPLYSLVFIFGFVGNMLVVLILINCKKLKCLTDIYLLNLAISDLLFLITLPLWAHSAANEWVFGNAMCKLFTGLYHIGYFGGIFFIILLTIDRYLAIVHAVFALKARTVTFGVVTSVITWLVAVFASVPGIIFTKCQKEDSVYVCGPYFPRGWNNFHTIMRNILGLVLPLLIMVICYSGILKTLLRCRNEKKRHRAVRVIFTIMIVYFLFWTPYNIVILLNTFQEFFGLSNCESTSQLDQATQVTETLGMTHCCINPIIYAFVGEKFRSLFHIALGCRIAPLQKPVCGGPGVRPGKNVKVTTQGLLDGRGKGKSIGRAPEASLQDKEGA

[3] = Glutathione reactivity assessed as half life of compound at 50 uM measured over 18 hrs by LC-UV method; format: physicochemical; details: glutathione solution (chemical reactivity test)
[4] = molecular target: T1, C-C chemokine receptor type 2 (Rattus norvegicus, UniProt O55193); test: Antagonist activity at rat C-C chemokine receptor type 2 assessed as inhibition of CCL2-induced calcium flux; format: functional
T1 sequence (O55193 whole entry): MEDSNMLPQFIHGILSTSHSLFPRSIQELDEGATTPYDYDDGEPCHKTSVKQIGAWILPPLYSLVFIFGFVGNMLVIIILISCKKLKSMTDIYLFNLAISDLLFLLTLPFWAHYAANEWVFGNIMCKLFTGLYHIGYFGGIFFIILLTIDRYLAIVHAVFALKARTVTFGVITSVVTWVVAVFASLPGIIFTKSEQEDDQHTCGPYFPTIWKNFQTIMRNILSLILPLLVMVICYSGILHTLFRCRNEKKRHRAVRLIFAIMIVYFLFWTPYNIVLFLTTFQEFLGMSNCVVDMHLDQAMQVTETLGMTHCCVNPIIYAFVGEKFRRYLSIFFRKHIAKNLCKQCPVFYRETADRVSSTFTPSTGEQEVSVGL

Compound | Drug metabolism [1] | IC50 [2] [nM] | half-life at 50 µM [3] [h] | IC50 [4] [nM]
CC(C)(C)N1CCN[C@@H](C(=O)N2CCN(C(=O)Nc3ncc(Cl)s3)CC2)C1 | Metabolite not detected | 7.4 |  | 
CCc1nc(NC(=O)N2CCN(C(=O)[C@H]3CN(C(C)C)CCN3)CC2)sc1Cl |  | 1.7 |  | 
CC(C)N1CCN[C@@H](C(=O)N2CCN(C(=O)Nc3nc(C(C)(C)C)c(Cl)s3)CC2)C1 |  | 2.3 |  | 
CC(C)(C)N1CCN[C@@H](C(=O)N2CCN(C(=O)Nc3ncc(F)s3)CC2)C1 | Metabolite not detected | 9.2 |  | 
Cc1nc(NC(=O)N2CCN(C(=O)[C@H]3CN(C(C)(C)C)CCN3)CC2)sc1Br |  | < 0.45 |  | 
COc1sc(NC(=O)N2CCN(C(=O)[C@H]3CN(C(C)(C)C)CCN3)CC2)nc1C | Metabolite not detected | 41 |  | 
O=[N+]([O-])c1ccc(CCl)cc1 |  |  | 3.6 | 
CC(C)N1CCN[C@@H](C(=O)N2CCN(C(=O)Nc3nc(C(C)(C)C)c(F)s3)CC2)C1 | Metabolite not detected | 2.7 |  | 
CC(=O)Nc1nc(C)c(Br)s1 | Metabolite not detected |  |  | 
CC(C)c1nc(NC(=O)N2CCN(C(=O)[C@H]3CN(C(C)C)CCN3)CC2)sc1Cl |  | 1.2 |  | 
CC(C)(C)N1CCN[C@@H](C(=O)N2CCN(C(=O)Nc3nc(C(F)(F)F)c(Cl)s3)CC2)C1 | Metabolite not detected | 0.13 |  | 1.3
CC(C)(C)N1CCN[C@@H](C(=O)N2CCN(C(=O)Nc3nc(C4CC4)cs3)CC2)C1 | Metabolite not detected | 1.1 |  | 
CC(C)(C)N1CCN[C@@H](C(=O)N2CCN(C(=O)Nc3nc(C4CC4)c(Cl)s3)CC2)C1 |  | < 0.45 |  | 
Cc1nc(NC(=O)N2CCN(C(=O)[C@H]3CN(C(C)(C)C)CCN3)CC2)sc1Cl |  | 0.65 |  | 
